≈ marks a conversion by molar mass, not a printed value. Entries after “also recorded” stand apart in the source; their conditions may differ.
Assays:
[1] = target: T1, Recombinant human His-MEK2 (Homo sapiens, UniProt P36507); experiment: SPR (Biacore T200) on immobilised His-MEK2; assay type: binding; details: 15° C.; 20 mM HEPES, 150 mM NaCl, 5% DMSO pH 7.4
T1 construct: purchased ThermoFisher Scientific PV3615
Procedure: (§1) SPR. SPR was performed on a Biacore T200. The active and reference flow cells of a Xantec NIHMC Ni sensor chip were conditioned with 0.5M NaEDTA followed by 5 mM NiCl2 in immobilisation buffer (20 mM HEPES, 150 mM NaCl, pH 7.4). Recombinant human His-MEK1 and His-MEK2 (500 nM, ThermoFisher Scientific, cat. PV3303 and PV3615, respectively) were injected for 15 min at 10 μl min^−1 over separate active flow cells. All immobilisation was carried out at 25° C. Following immobilisation, the temperature was lowered to 15° C., and the buffer changed to 20 mM HEPES, 150 mM NaCl, 5% DMSO pH 7.4. Samples of PD98059 (2.5-30 μM in running buffer) and BT2 (1.25-15 μM) were injected at a flow rate of 30 μl min^−1 over immobilised MEK1 and MEK2. Solvent correction was applied to the data using a DMSO standard curve. Data were analysed using the Biacore T200 Evaluation software. Prior to SPR, limits of compound solubility were determined using ^1H 1D NMR.

HMEC-1 = experiment: Endothelial network formation assay on Matrigel; assay type: cell-based, human
Procedure: Endothelial network formation assay. HMEC-1 (4×10^4 cells/well) in MCDB131 containing 1% FBS and compound (1 or 3 μM) or curcumin (1-40 μM) and 50 ng/ml FGF-2 were added to 96-well plates coated overnight at 4° C. with 100 μl of growth factor-reduced reconstituted basement membrane matrix (Matrigel, cat. 354230, Corning, NY). Network formation was observed over subsequent hours and photographed under 4× or 10× objective using an Olympus CKX41 microscope.

ERK phosphorylation = experiment: Western blot, IL-1β-inducible ERK phosphorylation in HMEC-1; assay type: cell-based, human; details: 20 ng/ml IL-1β 15 min
Procedure: Western blot analysis with extracts of cells treated with […]. HMEC-1 (80-90% confluency) were arrested in serum-free MCDB131 medium (Invitrogen, MD) without any growth factor for 48 h. Cells were treated with 30 μM compound in serum-free medium for 4 h, and incubated with 20 ng/ml IL-1β (Sigma, cat. SRE3083) in serum-free medium with the same concentration of compound for up to 4 h, unless otherwise indicated. Total protein was harvested as previously described using RIPA buffer with protease inhibitors. Proteins were resolved on 4-20% (w/v) SDS-polyacrylamide gradient gels and transferred to Immobilon-P PVDF membranes. Membranes were blocked with 5% skim milk and incubated with rabbit monoclonal FosB (cat. 2251S, 1:1000, Cell Signaling, USA), rabbit monoclonal VCAM-1 (cat. 13662S, 1:1000, Cell Signaling, USA), rabbit monoclonal p44/42 MAPK (cat. 4695S, 1:1000, Cell Signaling, USA), rabbit polyclonal p38 MAPK (cat. 9212S, 1:1000, Cell Signaling, USA), rabbit polyclonal SAPK/JNK (cat. 9252S, 1:1000, Cell Signaling, USA), rabbit monoclonal phospho-SAPK/JNK (cat. 4671S, 1:1000, Cell Signaling, USA), rabbit monoclonal phospho-p38 MAPK (cat. 4511S, 1:1000, Cell Signaling, USA), or, mouse monoclonal phospho-p44/42 MAPK antibodies (cat. 9106S, 1:2000, Cell Signaling, USA) at 4° C. overnight or mouse monoclonal β-actin antibodies (cat. A5316, 1:10000, Sigma-Aldrich) antibodies at 22° C. for 1 h. Membranes were then incubated with horseradish peroxidase conjugated secondary goat anti-rabbit (cat. P0448, 1:1000, DAKO Cytomation, Denmark) or goat anti-mouse (cat. P0447, 1:1000, DAKO Cytomation, Denmark) antibodies for 1 h. Chemiluminescence was detected using the Western Lightning Chemiluminescence system and ImageQuant™ LAS 4000 biomolecular imager. Band intensity in images generated with the LAS 4000 using the same settings were quantified by NIH ImageJ.

[2] = target: T2, Recombinant human His-MEK1 (Homo sapiens, UniProt Q02750); experiment: SPR (Biacore T200) on immobilised His-MEK1; assay type: binding; details: 15° C.; 20 mM HEPES, 150 mM NaCl, 5% DMSO pH 7.4
T2 construct: purchased ThermoFisher Scientific PV3303
T2 sequence (Q02750 whole entry): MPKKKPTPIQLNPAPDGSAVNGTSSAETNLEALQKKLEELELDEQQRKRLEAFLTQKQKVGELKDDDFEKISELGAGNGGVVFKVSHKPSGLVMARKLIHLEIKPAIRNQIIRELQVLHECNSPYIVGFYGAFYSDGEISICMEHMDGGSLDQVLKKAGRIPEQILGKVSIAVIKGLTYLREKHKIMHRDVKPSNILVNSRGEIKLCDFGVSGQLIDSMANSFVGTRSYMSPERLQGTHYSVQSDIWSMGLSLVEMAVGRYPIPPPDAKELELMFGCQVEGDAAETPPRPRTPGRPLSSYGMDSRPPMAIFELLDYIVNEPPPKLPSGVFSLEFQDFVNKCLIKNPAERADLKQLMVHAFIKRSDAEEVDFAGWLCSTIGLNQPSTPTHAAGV
Procedure: as §1

[3] = Limit of compound solubility by 1H 1D NMR; assay type: physicochemical; details: 1H 1D NMR spectroscopy
Procedure: as §1

T1 sequence (P36507 whole entry): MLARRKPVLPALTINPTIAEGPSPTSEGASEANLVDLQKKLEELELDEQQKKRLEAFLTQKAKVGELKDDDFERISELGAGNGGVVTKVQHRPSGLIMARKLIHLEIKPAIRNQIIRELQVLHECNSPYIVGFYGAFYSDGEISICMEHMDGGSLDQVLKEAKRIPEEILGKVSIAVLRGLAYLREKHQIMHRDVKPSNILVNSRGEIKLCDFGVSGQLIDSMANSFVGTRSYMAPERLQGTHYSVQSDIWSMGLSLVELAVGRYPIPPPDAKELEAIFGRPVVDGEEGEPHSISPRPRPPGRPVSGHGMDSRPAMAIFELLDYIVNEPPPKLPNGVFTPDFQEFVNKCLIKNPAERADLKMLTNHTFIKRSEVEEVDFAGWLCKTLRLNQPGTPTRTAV

CCN1C(=O)c2cc(NC(=O)OCC(C)C)ccc2Oc2ccccc21 [BT2-IC, isobutyl (10-ethyl-11-oxo-10,11-dihydrodibenzo[b,f][1,4]oxazepin-2-yl)carbamate]
binding to His-MEK2 (SPR) [1]: but not MEK2 | inhibition of network formation on Matrigel (FIG. 5B) (HMEC-1; 1 μM): not at 1 μM | inhibition of network formation on Matrigel (FIG. 13B) (HMEC-1; 3 μM): some inhibition of network formation at higher concentrations; also recorded: inhibited both ERK phosphorylation (FIG. 13A) and network formation (FIG. 13B) at 3 μM (albeit less potently than BT2) | IL-1β-inducible ERK phosphorylation (FIG. 5D) (ERK phosphorylation; 1 μM): not at 1 μM | IL-1β-inducible ERK phosphorylation (FIG. 13A) (ERK phosphorylation; 3 μM): inhibited both ERK phosphorylation (FIG. 13A) and network formation (FIG. 13B) at 3 μM (albeit less potently than BT2) | binding to His-MEK1 (SPR) [2]: some interaction with MEK1 | solubility [3]: 8 ± 2 µM (≈ 2.84 µg/mL)

From US20260102407A1, “TREATMENT METHODS” (priority 2020, published 2026)
